Assay results: patent US7666843B2, “Methods and compositions for treatment of neurological disorder” (Children's Medical Center Corporation, priority 2002, dated 2010)
Entries after “also recorded” stand apart in the source; their conditions may differ.

Columns and labels:
[1] = test system: goldfish retinal ganglion cells; assay: Goldfish retinal ganglion cell culture, axon outgrowth bioassay; type: cell-based; details: goldfish RGCs; for axon outgrowth in response to glucose/mannose analogs: analog alone (L-enantiomers 100 μM, D-glucosamine 25 μM, 2-deoxy-D-glucose 1 mM), FIG. 8a; for axon outgrowth, extracellular 6-phosphate: FIG. 8f; for axon outgrowth in response to monosaccharides: sugar alone, 50 or 100 μM, D-configuration, FIG. 7a; for effect on axon growth induced by inosine: 2-DG 1 mM; for effect on axon growth induced by VE<3: FIG. 2; for effect on glucose-induced axon outgrowth: glucose 10 μM (50 μM with late fraction), dBcAMP 1 mM, 3-O-MG 100:1, 2-DG 1 mM
Description: Goldfish retinal ganglion cells are prepared as described in PCT application serial no. PCT/US98/03001, the contents of which are incorporated herein by reference, and contacted with a hexose derivative such as mannose. The ability of the hexose derivative to stimulate axonal outgrowth from the goldfish retinal ganglion cells is monitored as described in PCT application serial no. PCT/US98/03001.
Goldfish retinal ganglion cell cultures. Mammalian AF-1 was initially characterized in bioassays using dissociated goldfish retinal ganglion cells (RGCs). In brief, Comet variety goldfish (Mt. Parnell Fisheries, PA) were dark-adapted, cooled to 4° C., and killed by cervical transection. Retinas were dissected and dissociated by incubation in papain followed by a series of trituration steps that result in an RGC-enriched cell suspension (Schwartz & Agronoff,; Schwalb et al., 1995). Approximately 500 RGCs per well were plated together with the experimental samples to be tested in defined, serum-free media containing Leibovitz' L15 media (Gibco BRL) plus N1 and N2 supplements (Bottenstein, Saito), antioxidants, and bovine serum albumin as described in detail elsewhere (Schwalb et al., 1995). In each experiment, 4 wells of each sample were distributed in 24-well plates in a blinded fashion so that the person evaluating axon outgrowth was unaware of the type of sample present in each well. Experiments included a positive control (previously validated goldfish AF-1 or inosine) and a negative control (defined media alone), likewise distributed on the plate in quadruplicate in a blinded fashion. After 6 days in culture at 21° C., axon outgrowth, operationally defined as the percent of RGCs that extended an axon≧5 cell diameters in length, was evaluated in approximately 150 consecutively encountered RGCs per well. […] Data are presented as normalized means ± SEM. All experiments were repeated at least 3 times.

[2] = test system: rat retinal ganglion cells; assay: Rat retinal ganglion cell culture, axon outgrowth; type: cell-based; details: rat RGCs; for axon outgrowth in the presence of forskolin: with forskolin, compared to forskolin alone, glucose up to 5 mM, mannose-6-phosphate up to 10 mM, FIG. 9a, 9c
Description: Rat retinal ganglion cell cultures. Retinal ganglion cells were identified by retrograde labeling with Fluorogold (FG: Fluorochrome, Inc.). […] After allowing 7 days for FG to be retrogradely transported up the optic nerve, rats were killed, eyes were removed, and the retinas dissected. Retinas were dissociated with papain treatment followed by trituration. Mixed cultures containing 100-150 FG-labeled RGCs per well were maintained in 24 well plates in a defined, serum-free media (Minimal Essential Media containing NaHCO3,) at 37° C. at 5% CO2 for 3 days.

[3] = 6-TG 20 μM, NBTI 20 μM, forskolin 10 μM, Sp-cAMPs 150 μM, Rp-cAMPs 100 μM, H89 5 μM, FIG. 2, 4
[4] = forskolin 10 μM, Rp-cAMPs 100 μM, MH 10 mM

CO[C@@H]1O[C@H](CO)[C@@H](O)[C@H](O)[C@H]1O [methyl-β-D-glucopyranoside]
axon outgrowth in response to glucose/mannose analogs [1]: ineffective
axon outgrowth in response to glucose/mannose analogs ([1]; listed as methyl-β-glucose pyranose): No activity

O=C[C@H](O)[C@@H](O)[C@H](O)[C@H](O)COP(=O)(O)O [D-glucose-6-phosphate]
axon outgrowth, extracellular 6-phosphate ([1]; 100 μM): modest amount of outgrowth
axon outgrowth, extracellular 6-phosphate ([1]; 1 mM): appreciable growth
axon outgrowth in response to glucose/mannose analogs [1]: relatively modest but statistically significant amount of outgrowth
axon outgrowth in response to glucose/mannose analogs ([1]; listed as D-glc-6-P): small but statistically significant level of outgrowth

O=C(CO)[C@@H](O)[C@H](O)[C@H](O)CO [fructose]
axon outgrowth in response to monosaccharides [1]: failed to stimulate outgrowth

CO[C@H]1O[C@H](CO)[C@@H](O)[C@H](O)[C@H]1O [methyl-α-D-glucopyranoside]
axon outgrowth in response to glucose/mannose analogs [1]: ineffective
axon outgrowth in response to glucose/mannose analogs ([1]; listed as methyl-α-glucose pyranose): No activity

O=C[C@@H](O)[C@H](O)[C@H](O)[C@H](O)CO [D-altrose]
axon outgrowth in response to monosaccharides [1]: failed to stimulate outgrowth

O[C@H]1[C@H](O)[C@@H](O)[C@H](O)[C@@H](O)[C@H]1O [myo-inositol]
axon outgrowth in response to monosaccharides [1]: failed to stimulate outgrowth

Nc1nc2nc[nH]c2c(=S)[nH]1 [6-TG, 6-thioguanine]
effect on axon growth induced by inosine ([1]; 6-TG 20 μM, NBTI 20 μM): only partially blocked; also recorded: only partially inhibited
effect on axon growth induced by AF-1 [1, 3]: below baseline levels
effect on axon growth induced by VE<3 ([1]; 6-TG 20 μM, NBTI 20 μM): below baseline levels; also recorded: inhibited completely
effect on growth induced by VE<3 plus forskolin or Sp-cAMPs ([2]; 6-TG, FIG. 3a): reduced growth; also recorded: strongly inhibited

O=C(CO)[C@H](O)[C@@H](O)[C@H](O)CO [sorbose]
axon outgrowth in response to monosaccharides [1]: failed to stimulate outgrowth

O=C[C@@H](O)[C@@H](O)[C@H](O)[C@H](O)COP(=O)(O)O [D-mannose-6-phosphate]
axon outgrowth, extracellular 6-phosphate ([1]; 100 μM): modest amount of outgrowth
axon outgrowth, extracellular 6-phosphate ([1]; 1 mM): appreciable growth
axon outgrowth in response to glucose/mannose analogs [1]: relatively modest but statistically significant amount of outgrowth
axon outgrowth in response to glucose/mannose analogs ([1]; listed as D-man-6-P): small but statistically significant level of outgrowth
axon outgrowth in the presence of forskolin [2]: did not respond

O=C[C@@H](O)[C@@H](O)[C@@H](O)[C@H](O)CO [D-talose]
axon outgrowth in response to monosaccharides [1]: failed to stimulate outgrowth

CCCCCCOC(=O)[C@]1(O)C[C@@H]2O[C@@]1(C)n1c3ccccc3c3c4c(c5c6ccccc6n2c5c31)C(=O)NC4 [KT5720]
effect on mannose-induced axon outgrowth ([1]; KT5720 1 μM, MH 10 mM, dBcAMP, late fraction with 50 μM mannose): did not diminish the effect of mannose; also recorded: little effect on mannose-induced growth
effect on mannose-induced axon outgrowth ([1]; KT5720 10 μM, FIG. 7f): only a slight effect

O=S(=O)(NCCNC/C=C/c1ccc(Br)cc1)c1cccc2cnccc12 [H89]
effect on axon growth induced by AF-1 [1, 3]: not diminished
effect on axon growth induced by AF-1 ([1]; 6-TG 20 μM, NBTI 20 μM, forskolin 10 μM, Sp-cAMPs 150 μM, Rp-cAMPs 100 μM, H89 5 μM, FIG. 2, 4, listed as H-89): did not reduce AF-1 induced growth
effect on axon growth induced by AF-1 ([1]; H89 20 μM, FIG. 4): diminished the effect of AF-1; also recorded: higher concentrations of H89 (20 μM) did

CO[C@@H]([C@H](O)[C@H](O)CO)[C@@H](O)C=O [3-O-methyl-D-glucose]
axon outgrowth in response to glucose/mannose analogs [1]: ineffective; also recorded: No activity
effect on glucose-induced axon outgrowth [1, 4]: fails to block the effect of glucose

O=CC[C@@H](O)[C@H](O)[C@H](O)CO [2-deoxy-D-glucose]
effect on axon growth induced by inosine ([1]; 6-TG 20 μM, NBTI 20 μM, listed as 2-DG): blocked the effects of both glucose and inosine; also recorded: also blocks the effect of inosine
axon outgrowth in response to glucose/mannose analogs [1]: ineffective; also recorded: No activity
effect on glucose-induced axon outgrowth ([1]; forskolin 10 μM, Rp-cAMPs 100 μM, MH 10 mM, listed as 2-DG): blocked the effects of both glucose and inosine; also recorded: does block the effect of glucose

N[C@@H]1C(O)O[C@H](CO)[C@@H](O)[C@@H]1O (stereo partly drawn) [D-mannosamine]
axon outgrowth in response to glucose/mannose analogs [1]: ineffective

O=C[C@H](O)[C@H](O)[C@H](O)[C@H](O)CO [D-allose]
axon outgrowth in response to monosaccharides [1]: failed to stimulate outgrowth

O=C[C@H](O)[C@H](O)[C@@H](O)[C@@H](O)CO [L-mannose]
axon outgrowth in response to glucose/mannose analogs [1]: completely inactive; also recorded: inactivity
axon outgrowth in the presence of forskolin [2]: inactivity

CC(=O)N[C@H]1C(O)O[C@H](CO)[C@@H](O)[C@@H]1O (stereo partly shown) [acetylglucosamine, N-acetyl-glucosamine]
axon outgrowth in response to glucose/mannose analogs [1]: ineffective
axon outgrowth in response to glucose/mannose analogs ([1]; listed as N-acetyl-glucosamine): No activity

O=C[C@H](O)[C@@H](O)[C@@H](O)[C@H](O)CO [D-galactose]
axon outgrowth in response to monosaccharides [1]: failed to stimulate outgrowth

Nc1ncnc2c1ncn2[C@@H]1O[C@@H]2CO[P@@](O)(=S)O[C@H]2[C@H]1O [Rp-cAMPs]
effect on axon growth induced by AF-1 [1, 3]: not diminished
effect on axon growth induced by AF-1 ([1]; 6-TG 20 μM, NBTI 20 μM, forskolin 10 μM, Sp-cAMPs 150 μM, Rp-cAMPs 100 μM, H89 5 μM, FIG. 2, 4, listed as Rp-cAMP-s): did not reduce AF-1 induced growth
block of glucose-induced outgrowth ([1]; Rp-cAMPs 1 mM): 48%
effect on glucose-induced axon outgrowth [1, 4]: no effect on glucose-induced outgrowth

C[C@H](O)[C@@H](O)[C@@H](O)[C@H](O)C=O [fucose, L-fucose]
axon outgrowth in response to glucose/mannose analogs [1]: ineffective
axon outgrowth in response to glucose/mannose analogs ([1]; listed as L-fucose): No activity

O=[N+]([O-])c1ccc(CSc2ncnc3c2ncn3[C@@H]2O[C@H](CO)[C@@H](O)[C@H]2O)cc1 [NBTI, 4-(nitrobenzyl-6-thioinosine)]
effect on axon growth induced by inosine ([1]; 6-TG 20 μM, NBTI 20 μM): effectively blocked; also recorded: blocked completely
effect on axon growth induced by AF-1 [1, 3]: very little effect
effect on axon growth induced by VE<3 ([1]; 6-TG 20 μM, NBTI 20 μM): very little effect; also recorded: not affected

COC(=O)C(C)=O [methyl pyruvate]
effect on outgrowth of adding energy substrate to the media ([1]; 5 mM): had no effect
